Laboratory results: patent publication US11807608B2, “Polymerizable compounds with one or more surfactant-like properties” (University of Manitoba, priority 2017, dated 2023)

Test: Surface tension by Wilhelmy plate (KRUSS K100 Tensiometer, ASTM D1331-14)
Format: physicochemical
Description: A KRUSS K100 Tensiometer was used to determine the surface tension of a sample of the compounds in liquid water at different concentrations. The concentrations tested were 0.5%, 1.0%, 3.0%, 5.0% and 10%. A platinum plate with dimensions of about 19.9 mm×about 0.2 mm×about 10 mm (width, thickness and height respectfully) was attached to a sensitive mass balance. The sample was raised to the fixed platinum plate at a rate of 10 mm/min with a detection sensitivity of 0.005 g until the liquid sample reached the bottom of the plate. The plate was then immersed in the liquid sample at a depth of 2 mm for 60-150 seconds and any change in mass was recorded by the equipment as a function of time. Force was determined using the equation f=ma.
The surface tension (γ) of each liquid sample was calculated from the force measurement (f) using the equation outlined in Method C: Surface Tension by Wilhelmy plate, ASTM D1331-14.
[formula] where (l) is the length and (t) is the thickness of the plate. The contact angle was assumed to be 0. The test results describe a trend and general indication of the surfactant properties of each compound tested.

[1] = 0.5% in water, 150 second measurement
[2] = 1.0% in water, 150 second measurement
[3] = 3.0% in water, 150 second measurement
[4] = 5.0% in water, 150 second measurement
[5] = 10.0% in water, 150 second measurement

| Surface Tension Mean [1] | Surface Tension Mean [2] | Surface Tension Mean [3] | Surface Tension Mean [4] | Surface Tension Mean [5] | Compound | Surface Tension Mean (0.5% in water, 60 second measurement) | Surface Tension Mean (1.0% in water, 60 second measurement) | Surface Tension Mean (3.0% in water, 60 second measurement) | Surface Tension Mean (5.0% in water, 60 second measurement) | Surface Tension Mean (10.0% in water, 60 second measurement) |
| --- | --- | --- | --- | --- | --- | --- | --- | --- | --- | --- |
| 37.16 mN/m | 36.19 mN/m | 35.80 mN/m | 35.84 mN/m | 30.44 mN/m | C=C(C)C(=O)OCCCCCCCCCCC[N+](C)(C)C1CC(C)(C)NC(C)(C)C1.[Br-] [Formula 9] |  |  |  |  |  |
| 47.18 mN/m | 39.51 mN/m | 36.93 mN/m | 35.50 mN/m | 36.39 mN/m | C=C(C)C(=O)OCC[N+](C)(C)CCCCCCCCCC[N+](C)(C)C1CC(C)(C)NC(C)(C)C1.[Br-].[Br-] [Formula 6] |  |  |  |  |  |
|  |  |  |  |  | C=C(C)C(=O)NCCC[N+](C)(C)CCCCCCCCCC[N+](C)(C)C1CC(C)(C)NC(C)(C)C1.[Br-].[Br-] [Formula 5, PIP-C10-C3-methyl, methyl, acrylamide] | 36.93 mN/m | 32.55 mN/m | 31.23 mN/m | 30.28 mN/m | 29.57 mN/m |
